Values joined by “and” are separate entries in the source; they are usually repeats but may differ in a detail not shown here. Equal entries are not always repeated. “Also recorded” adds a separate entry of the source.
Legend:
MC38 colon cancer cells = assay: Syngeneic MC38 mouse colon carcinoma model, CPI-444 dose response and rechallenge; format: in vivo
Source text: 100% protected from rechallenge. […] These mice were challenged with the new engraftment of MC38 tumor cells.
MC38 colon cancer cells were subcutaneously injected onto the backs of syngeneic C57BL/6 mice.

[1] = system: MC38 mouse colon cancer cells; assay: Syngeneic MC38 mouse colon cancer model, CPI-444 in combination with anti-PD-L1; format: in vivo
Source text: Combo eliminates tumors in 50% of mice. […] Treatment continued for 12 days.
FIGS. 16A and 16B: MC38 Model: Established tumors eliminated in 8/9 mice.
Treatment continued for more than 9 days (FIG. 23C). […] T cell depletion was verified by flow analysis. FIGS. 23A and 23B show the tumor volume at different time points since engraftment for the dosing cohorts.
Treatment continued for 12 days. […] T cell depletion was verified by flow analysis. FIGS. 23A and 23B show tumor volume at different time points since engraftment for the dosing cohorts.
Treatment continued for more than 9 days. […] T cell depletion was verified by flow analysis. FIGS. 23A and 23B show tumor volume at different time points since engraftment for the dosing cohorts.

A2AR [2] = molecular target: T1, A2AR (Homo sapiens, UniProt P29274); assay: pERK levels in human CD4+ T cells after TCR cross-linking; details: NECA 1 μM
A2AR [3] = molecular target: T1, A2AR; assay: NECA-induced pCREB in whole blood B cells and T cells of treated subjects (flow cytometry); format: in vivo; parameters: Blood samples were derived from patients and processed using the following protocol; endogenous in cells; host or cells: whole blood B cells and T cells of treated subjects
Experimental: Control samples were treated with phorbol myristate acetate (PMA).
[…] control samples were treated with phorbol myristate acetate (PMA).
On day 14, blood was collected prior to dosing (0 hr, trough) and for a time course post-dose (1.5, 3, 5.5, 8 hr) (FIGS. 26-28). The level of signaling was determined and the percent inhibition on Day 14 compared to Day 1 pre-treatment was calculated.

CT26 cells = assay: XTT cell viability/proliferation, CT26; format: cell-based, mouse; details: 10 µM to 1 pM, 24 hours
Experimental: (§1) Staurosporine, a well-characterized inducer of apoptosis, was included as a positive control for cell death. Cell viability/proliferation was measured by XTT. In this assay, XTT salts are cleaved by metabolically active (viable) cells, thereby producing a colorimetric change in the culture media that can be quantified by measuring absorbance at 405 nm and 620 nm on a spectrophotometer.

[4] = system: CT26 mouse colon cancer cells; details: CPI-444 100 mg/kg oral; anti-PD-1 100 ug/mouse i.p.
Source text: CT26 mouse colon cancer cells were engrafted onto the back of syngeneic male Balb/c mice. […] Treatment continued for 12 days.

A2AR [5] = molecular target: T1, A2AR; assay: IL-2 and IFNγ secretion from activated primary human PBMCs (AlphaLISA); format: cell-based; parameters: Blood samples were derived from patients and processed using the following protocol; endogenous in cells; host or cells: whole blood B cells and T cells of treated subjects; details: CPI-444 1 μM; NECA or CGS21680 1 μM; anti-CD3/anti-CD28 48 hours
Experimental: Purified anti-CD3 and anti-CD28 monoclonal antibodies (1 ug/ml) were then added to activate T cells for 48 hours.
Purified anti-CD3 and anti-CD28 monoclonal antibodies (1 ug/ml) were then added to activate T cells for 48 hours. In this study, AlphaLISA assays (PerkinElmer) analyzed on an EnVision MultiLabel Reader were used to measure cytokine release according to the manufacturer's instructions.

EL4 cells [6] = assay: Syngeneic EL4 mouse lymphoma model; format: in vivo; details: 10, 30, 100 mg/kg daily oral gavage
Experimental: Syngeneic C57BL/6 female mice (8-10 weeks old) were injected (via subcutaneous route) with EL4 cells.

A2AR [7] = molecular target: T1, A2AR; assay: cAMP production in primary human T cells stimulated with NECA (LANCE Ultra cAMP); format: cell-based; parameters: Blood samples were derived from patients and processed using the following protocol; endogenous in cells; host or cells: whole blood B cells and T cells of treated subjects
Experimental: Adenosine signaling through A2AR leads to increases in the levels of cAMP.
T cells were isolated from human PBMC by negative selection and activated via CD3/CD28 stimulation for 48 hours to induce A2AR expression. Stimulated T cells were then “rested” for 24 hours by removal of CD3/CD28 stimulation in order to minimize background levels of cAMP.

[8] = non-oncology indications; 75 subjects; cited from earlier work
A2AR [9] = molecular target: T1, A2AR; assay: NECA-induced phospho-CREB in fresh PBMCs (B cell population); details: primarily B cell population
[10] = Phase 1/1b clinical trial in solid tumor patients (safety, efficacy, blood biomarkers); format: in vivo, human
Experimental: FIGS. 19A and 19B: T Cell activation in treated subjects. Whole blood was collected on Day 1 of Cycles 1, 2, 4 & 8 for flow analysis. The percentage of CD4 and CD8 T cells that stained PD-1+(FIG. 19A) or CD45RA− (memory/effector cells) (FIG. 19B) is shown. Each line represents a single subject across time.
Whole blood was collected on Day 1 of Cycles 1 and 2 and PBMCs were prepared. DNA was extracted from PBMCs and sequenced for TCRβ repertoire by Adaptive Biotechnologies. […] Morisita Index measures T cell repertoir similarity comparing pre- and post-dose PBMCs. A Morisita Index of 1 is equal to identity, indicating no longitudinal change. Morisita Index distribution in single agent and combination cohorts (FIG. 20B). Graph showing Morisita Index by cohort (FIG. 20C). […] Changes were driven predominantly by TCR clone expansion (clonality).
After a dose selection stage, pts are treated in 10 disease specific cohorts (5 single agent and 5 combination). Cohorts may be expanded based on response criteria: complete response, partial response or stable disease (SD). Biomarkers are evaluated including immune cells by flow cytometry in peripheral blood and pre/post treatment tumor biopsies as well as adenosine pathway modulation by immunohistochemistry and gene expression.
In step 1 of the trial, patients were dosed with either 100 mg BID for 14 days out of a 28 day cycle, 100 mg BID for 28 days, 200 mg QD for 14 days or 50 mg or 100 mg BID for 14 days in combination with […]® (840 mg Q2W). Pharmacodynamic analysis was conducted on peripheral blood cells to inform dose selection. Step 1 of Phase1/1b was fully enrolled (n=48) and dose was selected (100 mg BID) based on pharmacodynamic analysis of A2AR pathway.

EL4 cells [11] = assay: XTT cell viability/proliferation, EL4; format: cell-based, mouse; details: 10 µM to 1 pM, 24 hours
Experimental: as §1

MC38 cells = assay: XTT cell viability/proliferation, MC38; format: cell-based, mouse; details: 10 µM to 1 pM, 24 hours
Experimental: as §1

T1 sequence (P29274 whole entry): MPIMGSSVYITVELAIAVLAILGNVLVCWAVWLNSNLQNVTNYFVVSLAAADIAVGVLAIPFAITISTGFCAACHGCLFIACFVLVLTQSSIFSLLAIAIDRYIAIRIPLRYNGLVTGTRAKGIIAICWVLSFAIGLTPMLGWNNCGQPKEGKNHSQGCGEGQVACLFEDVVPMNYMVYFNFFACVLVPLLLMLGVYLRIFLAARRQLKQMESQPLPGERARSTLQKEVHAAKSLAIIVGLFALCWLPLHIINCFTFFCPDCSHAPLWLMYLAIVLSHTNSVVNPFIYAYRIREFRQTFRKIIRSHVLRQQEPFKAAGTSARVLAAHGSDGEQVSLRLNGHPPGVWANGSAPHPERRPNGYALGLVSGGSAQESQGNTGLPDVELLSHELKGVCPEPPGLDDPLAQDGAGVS

Cc1ccc(-c2nc(N)nc3c2nnn3Cc2cccc(COC3CCOC3)n2)o1 (stereo not drawn) [CPI-444]
tumor growth (MC38 colon cancer cells; 1 mg/kg daily oral gavage for 28 days): did not inhibit tumor growth
tumor growth (MC38 colon cancer cells; 10 mg/kg daily oral gavage for 28 days): significantly inhibits the growth; also recorded: significant inhibition of tumor growth
tumor growth (MC38 colon cancer cells; 100 mg/kg daily oral gavage for 28 days): significantly inhibits the growth; also recorded: significant inhibition of tumor growth
mice with tumors eliminated (MC38 colon cancer cells; CPI-444 dose response study): 30%
complete tumor regression (MC38 colon cancer cells; all cohorts (1, 10, 100 mg/kg)): complete tumor regression was observed in a subset of mice within all cohorts
tumor growth after rechallenge with MC38 cells (MC38 colon cancer cells; cured mice, no additional CPI-444 treatment): fully inhibited; also recorded: fully rejected in all 9 mice
inhibition of tumor growth (dose response) (MC38 colon cancer cells; daily CPI-444 1, 10, 100 mg/kg): dose-dependent inhibition of tumor growth; also recorded: Inhibits Growth of MC38 Tumors
mice protected from rechallenge (MC38 colon cancer cells; new engraftment of MC38 cells, no additional CPI-444 treatment): 100%
reoccurrence during additional 6 weeks monitoring (MC38 colon cancer cells; nine mice with complete tumor growth inhibition): No tumor growth was observed
tumor eradication ([1]; CPI-444 100 mg/kg from Day 0, anti-PD-L1 200 ug/mouse): not completely eradicated
tumor growth ([1]; CPI-444 100 mg/kg oral from Day 0 for 12 days, anti-PD-L1 mAb 10F.9G2 200 ug/mouse i.p. days 7, 10, 13, 16): inhibition of tumor growth
dependence of efficacy on CD8+ T cells (T cell depletion with Anti-mCD4 / Anti-mCD8) ([1]; CPI-444 100 mg/kg, anti-PD-L1 200 ug/mouse): CD8+ T cells are required for the efficacy
mice with tumors eliminated ([1]; FIGS. 14A and 14B title): 30%
levels of immune checkpoints (GITR, OX40, LAG3) on tumor infiltrating lymphocytes and circulating T cells ([1]; mouse, in vivo): modulated
pERK levels / ERK signaling in CD4+ T cells in the presence of NECA (A2AR [2]): restored pERK levels in a dose-dependent manner; also recorded: Restores pERK
inhibition of NECA-induced pCREB (A2AR [3]; 50 mg BID, Day 14): Variable inhibition; also recorded: not high enough for sustained inhibition
change in pCREB percent inhibition between trough (0 hr) and peak (3 hr) (A2AR [3]; 100 mg BID): Little fluctuation from trough to peak
patients with complete and sustained inhibition of NECA-induced pCREB (A2AR [3]; 100 mg BID single agent, Day 14): 7 of 7
inhibition of pCREB / A2AR pathway (A2AR [3]; 100 mg BID, Day 14): high pCREB inhibition at trough and near complete inhibition after taking their morning dose; also recorded: highest pCREB inhibition at trough and near complete inhibition after taking their morning dose
inhibition of NECA-induced pCREB (A2AR [3]; 200 mg QD, Day 14): Variable inhibition; also recorded: achieves high peak levels but is not maintained at trough; also recorded: partial inhibition; also recorded: attenuated
CPI-444 plasma levels with near complete inhibition of pCREB in B cells (A2AR [3]; B cells): greater than 2,000 ng/mL
CPI-444 plasma levels with near complete inhibition of pCREB in CD4+ T cells (A2AR [3]; T cells): greater than 2,000 ng/mL
CPI-444 exposures at which the A2AR pathway is completely inhibited (A2AR [3]; plasma CPI-444): greater than 2000 ng/mL
Specific Absorbance (XTT cell viability/proliferation) (CT26 cells): No significant decrease in the Specific Absorbance
tumor eradication / elimination [4]: not completely eradicated
IFNγ secretion in presence of A2AR agonist (A2AR [5]): restored IL-2 and IFNγ secretion back to levels observed in the absence of exogenous adenosine signaling
IL-2 secretion in presence of A2AR agonist (A2AR [5]): restored IL-2 and IFNγ secretion back to levels observed in the absence of exogenous adenosine signaling
tumor growth in regional lymph nodes (number and size of enlarged nodes) (EL4 cells [6]): significant dose-dependent inhibition of tumor growth within regional lymph nodes; also recorded: significant, dose-dependent decrease in the number and size of enlarged regional lymph nodes; also recorded: Inhibits EL4 Tumor Growth In Regional Lymph Nodes
cAMP production upon NECA stimulation, CPI-444 dose dependence (A2AR [7]; FIG. 6): prevented cAMP production upon NECA stimulation in a dose-dependent manner; also recorded: Inhibits cAMP Production
production of cAMP upon NECA treatment (A2AR [7]; all levels of NECA tested (10^-5 to 10^-9 M), 10 minutes): completely blocked the production of cAMP
tolerability [8]: well tolerated; also recorded: well tolerated with no significant adverse events noted
inhibition of NECA-induced CREB phosphorylation (A2AR [9]): completely inhibited; also recorded: Prevents pCREB Induction in B Cells
first efficacy assessment by CT ([10]; 2 pts (1 combination and 1 single agent), unconfirmed at 2 months): both demonstrated SD
tolerability / treatment related adverse events ([10]; 7 pts treated to date): well tolerated with no Grade 3 or 4 treatment related adverse events; also recorded: well tolerated
tumor response ([10]; Nivolumab-refractory lung cancer patient, 100 mg po BID×28 days/cycle): Tumor regression
TCR repertoire changes in peripheral blood ([10]; TCRβ sequencing of PBMCs, Day 1 of Cycles 1 and 2): TCR repertoire changes were induced; also recorded: robust changes in TCR repertoire in some patients
activated (PD-1+) CD8 cell frequencies in blood ([10]; flow analysis of whole blood): Increases in activated CD8 cell frequencies
memory (CD45RA−) cell frequencies in blood ([10]; flow analysis of whole blood): increases
T cell clone expansion / clonality ([10]; single agent CPI-444): Expansion of pre-existing and new T cell clones; also recorded: increased clonality
increase in PD-1+CD8+ cells in peripheral blood compared to baseline ([10]; the two pts with SD): 1.7 fold and 2.4 fold
Specific Absorbance (XTT cell viability/proliferation) (EL4 cells [11]): No significant decrease in the Specific Absorbance
Specific Absorbance (XTT cell viability/proliferation) (MC38 cells): No significant decrease in the Specific Absorbance
